Assay results reported in patent US20250230193A1, “CYCLIC COMPOUND HAVING SELECTIVE KRAS INHIBITORY EFFECT ON HRAS AND NRAS” (CHUGAI SEIYAKU KABUSHIKI KAISHA, priority 2022, published 2025).
Where a SMILES comes first, the peptide text is derived from it. Bridges are numbered along the chain shown (N, C = ends). [ ]: non-standard residue; d: D form. The star is where a group is joined. hPhe(3,5-F2-4-CF3) = N[C@@H](CCc1cc(F)c(C(F)(F)F)c(F)c1)C(=O)O; hPhe(3-Cl-4-CF3) = N[C@@H](CCc1ccc(C(F)(F)F)c(Cl)c1)C(=O)O; NPrPhe(4-CF3) = CCCN[C@@H](Cc1ccc(C(F)(F)F)cc1)C(=O)O; NMePhe(4-Me) = CN[C@@H](Cc1ccc(C)cc1)C(=O)O; NMeGly(cPent) = CN[C@H](C(=O)O)C1CCCC1; NMeD = CN[C@@H](CC(=O)O)C(=O)O; NMeL = CN[C@@H](CC(C)C)C(=O)O; Iva = CC[C@](C)(N)C(=O)O; Morpholide = C1CN(*)CCO1; Ac5c = NC1(C(=O)O)CCCC1; NEtG = CCNCC(=O)O; Sar = CNCC(=O)O

What was measured:
[1] = molecular target: GDP-bound HRAS wild-type protein (Homo sapiens, UniProt P01112); test: Binding to HRAS by surface plasmon resonance (SPR), Single Cycle Kinetics
[2] = molecular target: GDP-bound NRAS wild-type protein (Homo sapiens, UniProt P01111); test: Binding to NRAS by surface plasmon resonance (SPR), Single Cycle Kinetics
[3] = KD ratio, GDP-bound HRAS wild-type vs GDP-bound KRAS wild-type, SPR
[4] = KD ratio, GDP-bound NRAS wild-type vs GDP-bound KRAS wild-type, SPR
[5] = KD ratio HRAS/KRAS, class symbols
[6] = KD ratio NRAS/KRAS, class symbols

Chain of GDP-bound NRAS wild-type protein (P01111 whole entry): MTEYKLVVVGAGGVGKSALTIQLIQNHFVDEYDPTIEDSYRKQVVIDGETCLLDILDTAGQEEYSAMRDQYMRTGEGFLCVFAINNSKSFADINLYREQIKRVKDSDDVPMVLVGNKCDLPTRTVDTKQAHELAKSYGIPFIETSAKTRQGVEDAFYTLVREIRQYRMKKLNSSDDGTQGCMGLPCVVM
Chain of GDP-bound HRAS wild-type protein (P01112 whole entry): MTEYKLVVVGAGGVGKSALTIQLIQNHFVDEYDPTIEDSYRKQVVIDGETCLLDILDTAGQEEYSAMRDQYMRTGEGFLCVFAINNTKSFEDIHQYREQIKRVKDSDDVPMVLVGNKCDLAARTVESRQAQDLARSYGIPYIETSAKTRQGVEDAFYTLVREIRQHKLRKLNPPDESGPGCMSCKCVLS

Structure (SMILES): CC[C@H](C)[C@@H]1NC(=O)[C@H](COC)N(C)C(=O)C[C@@H](C(=O)N2CCOCC2)N(C)C(=O)[C@H](C2CCCC2)N(C)C(=O)C2(CCC2)NC(=O)[C@@H]2CC(F)(F)CN2C(=O)[C@H](CCc2cc(F)c(C(F)(F)F)c(F)c2)NC(=O)CN(C)C(=O)[C@H](Cc2ccc(C(F)(F)F)cc2)N2CCCCC[C@@H](C2=O)N(C)C(=O)CNC1=O [PP0861]
- HRAS/KRAS (ratio of KD value with respect to HRAS to KD value with respect to KRAS) [1, 3]: B (a compound having 3 or more and less than 10 is denoted as B)
- NRAS/KRAS (ratio of KD value with respect to NRAS to KD value with respect to KRAS) [2, 4]: B (a compound having 3 or more and less than 10 is denoted as B)

Structure (SMILES): CCC[C@H]1C(=O)N[C@@H]([C@@H](C)CC)C(=O)N(C)CC(=O)N(C)[C@H]2C/C=C\CCN(C2=O)[C@@H](Cc2ccc(C(F)(F)F)cc2)C(=O)N(C)CC(=O)N[C@@H](CCc2ccc(C(F)(F)F)c(OC)c2)C(=O)N2C[C@H](OCC)C[C@H]2C(=O)N(C)C2(CCC2)C(=O)N(C)[C@@H](C(CC)CC)C(=O)N(C)[C@H](C(=O)N(C)C)CC(=O)N1C [PP2382]
- HRAS/KRAS (ratio of KD value with respect to HRAS to KD value with respect to KRAS) ([1]; SPR, GDP-bound HRAS wild-type vs GDP-bound KRAS wild-type): A (a compound having 10 or more and less than 20 is denoted as A)
- NRAS/KRAS (ratio of KD value with respect to NRAS to KD value with respect to KRAS) ([2]; SPR, GDP-bound NRAS wild-type vs GDP-bound KRAS wild-type): A (a compound having 10 or more and less than 20 is denoted as A)

Structure (SMILES): CCCN1C(=O)CN(C)C(=O)CN(C)C(=O)[C@H]([C@@H](C)CC)NC(=O)[C@H](CC(C)C)N(C)C(=O)C[C@@H](C(=O)N2CCOCC2)N(C)C(=O)[C@H](C2CCCC2)N(C)C(=O)[C@](C)(CC)NC(=O)[C@@H]2CCCN2C(=O)[C@H](CCc2cc(F)c(C(F)(F)F)c(F)c2)NC(=O)CN(C)C(=O)[C@@H]1Cc1ccc(C(F)(F)F)cc1 [PP0754] ([NMeL]I[Sar][Sar][NPrPhe(4-CF3)][Sar][hPhe(3,5-F2-4-CF3)]P[Iva][NMeGly(cPent)][NMeD]-Morpholide; lactam N-11)
- HRAS/KRAS (ratio of KD value with respect to GDP-bound HRAS wild-type protein to KD value with respect to KRAS) ([1]; KD ratio HRAS/KRAS, SPR): C (A compound having a KD ratio of 0.1 or more and less than 3 is denoted as C)
- NRAS/KRAS (ratio of KD value with respect to GDP-bound NRAS wild-type protein to KD value with respect to KRAS) ([2]; KD ratio NRAS/KRAS, SPR): B (a compound having 3 or more and less than 10 is denoted as B)

Structure (SMILES): CCO[C@@H]1C[C@H]2C(=O)NC3(CC(C)(C)C3)C(=O)N(C)[C@@H](C3CCCC3)C(=O)N(C)[C@H](C(=O)N(C)CC)CC(=O)N(C)[C@H]3CCC/C=C/c4ccc(cc4)C[C@@H](C(=O)N(C)CC(=O)N[C@@H](CCc4ccc(Cl)c(Cl)c4)C(=O)N2C1)N1CC/C=C\C[C@@H](C1=O)N(C)C(=O)CN(C)C(=O)[C@H]([C@@H](C)CC)NC3=O [PP2577]
- HRAS/KRAS (ratio of KD value with respect to GDP-bound HRAS wild-type protein to KD value with respect to KRAS) [1, 5]: A (a compound having 10 or more and less than 20 is denoted as A)
- NRAS/KRAS (ratio of KD value with respect to GDP-bound NRAS wild-type protein to KD value with respect to KRAS) [2, 6]: A (a compound having 10 or more and less than 20 is denoted as A)

Structure (SMILES): CCOC[C@H]1C(=O)N[C@@H]([C@@H](C)CC)C(=O)N(C)CC(=O)N(C)[C@H]2C/C=C\CCN(C2=O)[C@@H](Cc2ccc(C(F)(F)F)cc2)C(=O)N(C)CC(=O)N[C@@H](CCc2ccc(Cl)c(Cl)c2)C(=O)N2C[C@H](OCC)C[C@H]2C(=O)NC2(CC(C)(C)C2)C(=O)N(C)[C@@H](CC2CCC2)C(=O)N(C)[C@H](C(=O)N(C)C)CC(=O)N1C [PP2767]
- HRAS/KRAS (ratio of KD value with respect to GDP-bound HRAS wild-type protein to KD value with respect to KRAS) [1, 5]: A (a compound having 10 or more and less than 20 is denoted as A)
- NRAS/KRAS (ratio of KD value with respect to GDP-bound NRAS wild-type protein to KD value with respect to KRAS) [2, 6]: A (a compound having 10 or more and less than 20 is denoted as A)

Structure (SMILES): CCC[C@H]1C(=O)N[C@@H]([C@@H](C)CC)C(=O)N(C)CC(=O)N(C)[C@H]2C/C=C\CCN(C2=O)[C@@H](Cc2ccc(C(F)(F)F)cc2)C(=O)N(C)CC(=O)N[C@@H](CCc2ccc(C(F)(F)F)c(Cl)c2)C(=O)N2C[C@H](OCC)C[C@H]2C(=O)NC2(CC(C)(C)C2)C(=O)N(C)[C@@H](C2CCCC2)C(=O)N(C)[C@H](C(=O)N(C)C)CC(=O)N1C [PP1748]
- HRAS/KRAS (ratio of KD value for HRAS to KD value for KRAS) [1, 3]: B (a compound having 3 or more and less than 10 is denoted as B)
- NRAS/KRAS (ratio of KD value for NRAS to KD value for KRAS) [2, 4]: A (a compound having 10 or more and less than 20 is denoted as A)

Structure (SMILES): CC[C@H](C)[C@@H]1NC(=O)[C@H](CC(C)C)N(C)C(=O)C[C@@H](C(=O)N2CCOCC2)N(C)C(=O)[C@H](C2CCCC2)N(C)C(=O)C2(CCCC2)NC(=O)[C@@H]2CCCN2C(=O)[C@H](CCc2ccc(C(F)(F)F)c(Cl)c2)NC(=O)CN(CC)C(=O)[C@H](Cc2ccc(C)cc2)N(C)C(=O)CN(C)C(=O)CN(C)C1=O [PP0025] ([NMeL]I[Sar][Sar][NMePhe(4-Me)][NEtG][hPhe(3-Cl-4-CF3)]P[Ac5c][NMeGly(cPent)][NMeD]-Morpholide; lactam N-11)
- HRAS/KRAS (ratio of KD for GDP-bound HRAS wild-type to KD for KRAS) ([1]; KD ratio HRAS/KRAS, SPR): C (A compound having a KD ratio of 0.1 or more and less than 3 is denoted as C)
- NRAS/KRAS (ratio of KD for GDP-bound NRAS wild-type to KD for KRAS) ([2]; KD ratio NRAS/KRAS, SPR): C (A compound having a KD ratio of 0.1 or more and less than 3 is denoted as C)
